Results from paper PMC8086144, “A novel peptide antagonist of the human growth hormone receptor” (The Journal of Biological Chemistry, 2021).

Tests used:
hPRLR [1] = biological target: T1, hPRLR (Homo sapiens, UniProt P16471); assay: hPRL-induced pSTAT5 in T84 cells, Western blot; type: cell-based; details: 2.5 nM hPRL, 20 min, S1H concentration not given
T1 construct: T84 cells express high levels of hPRLR relative to hGHR (>1300:1); host or cells: T84 (human colon cancer), MALME-3M (human melanoma)
T1 sequence (P16471 25-622): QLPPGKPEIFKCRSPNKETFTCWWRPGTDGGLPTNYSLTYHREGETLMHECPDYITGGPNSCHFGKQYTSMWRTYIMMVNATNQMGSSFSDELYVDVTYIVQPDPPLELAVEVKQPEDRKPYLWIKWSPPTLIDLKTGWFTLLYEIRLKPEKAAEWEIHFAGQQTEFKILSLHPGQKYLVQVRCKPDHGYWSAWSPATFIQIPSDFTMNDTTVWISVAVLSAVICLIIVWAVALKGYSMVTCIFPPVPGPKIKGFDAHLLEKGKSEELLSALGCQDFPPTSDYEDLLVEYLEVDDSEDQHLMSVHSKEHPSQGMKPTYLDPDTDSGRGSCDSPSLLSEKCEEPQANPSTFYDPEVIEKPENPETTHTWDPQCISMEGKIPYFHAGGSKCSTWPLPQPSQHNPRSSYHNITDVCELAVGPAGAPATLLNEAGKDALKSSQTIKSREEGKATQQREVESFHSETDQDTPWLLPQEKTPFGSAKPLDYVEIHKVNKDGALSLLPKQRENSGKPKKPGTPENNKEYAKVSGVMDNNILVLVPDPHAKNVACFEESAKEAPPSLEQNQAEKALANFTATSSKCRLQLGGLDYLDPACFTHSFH
Experimental: (§1) SK-MEL-28, MALME-3M, and T84 cells were grown and maintained in Eagle's Minimal Essential Medium. IM9 and L cells were grown in RPMI-1640 media and Dulbecco's modified Eagle's medium, respectively. All growth media was supplemented with 10% fetal bovine serum and 1× antibiotic-antimycotic […] solution. Cells were grown at 37 °C under a 5% CO2 atmosphere in a humidified incubator, and growth media was replaced every 48 h during incubation. No hGH was present in or added to the growth media unless specifically indicated. […]
(§2) Following treatment, the cells were harvested at the indicated time points, and the total protein was extracted. […] Sample protein concentration was quantified using a Bradford assay with bovine serum albumin as the protein standard. Absorbance at 595 nm was measured using a Spectramax 250 multimode plate reader (Molecular Devices) and processed using SoftmaxPro v4.7.1 software.
(§3) Cytosolic fractions from treated cells were thawed on ice, and 80 μg protein was loaded onto polyacrylamide gels for separation by SDS-PAGE. […] Chemiluminescence signals were detected using a GelDoc (BioRad) fluorescence imager. […]

hPRLR [2] = biological target: T1, hPRLR; assay: hPRL-induced pSTAT5 in MALME-3M cells, Western blot; type: cell-based; details: 2.5 nM hPRL, 20 min, S1H concentration not given
Experimental: as §1, §2, §3

CC[C@H](C)[C@H](NC(=O)[C@H](Cc1ccc(O)cc1)NC(C)=O)C(=O)N1CCC[C@H]1C(=O)N[C@@H](CCCCN)C(=O)N[C@@H](CCC(=O)O)C(=O)N[C@@H](CCC(N)=O)C(=O)N[C@@H](CCCCN)C(=O)N[C@@H](Cc1ccc(O)cc1)C(=O)N[C@@H](CO)C(=O)N[C@@H](Cc1ccccc1)C(=O)N[C@@H](CC(C)C)C(=O)N[C@@H](CCC(N)=O)C(=O)N[C@@H](CC(N)=O)C(=O)N1CCC[C@H]1C(=O)N[C@@H](CCC(N)=O)C(=O)N[C@H](C(N)=O)[C@@H](C)O [S1H]
inhibition of hPRL-induced pSTAT5 (hPRLR [1]): 13%
inhibition of hPRL-induced pSTAT5 (hPRLR [2]): 49%
